Test results published in patent publication US20180371046A1, “Therapy for Lower Urinary Tract Dysfunctions” (University of Pittsburgh - Of the Commonwealth System of …, priority 2017, published 2018).
“Also recorded” adds a separate entry of the source.

Columns and labels:
[1] = Plasma hRLX2 level in rats; type: in vivo; settings: rat, male; SC pump 77 μg/kg/d/14 days
aged rat bladder [2] = assay: Collagen staining and collagen:tissue ratio in aged and adult rat bladder sections; type: in vivo; settings: for collagen:tissue ratio / bladder collagen content / deposition: 400 μg/kg/day for 14 days; for bladder collagen content / deposition: aged rats (male where stated)
Protocol: The other bladder strip was fixed in 10% PFA, embedded in paraffin, cut 5 μm thick, stained for collagen (Sigma HT251) and examined using bright field microscopy (total mag., 400×). The images were obtained at identical conditions and color analysis was performed using the ImageJ software threshold function to discriminate collagen and smooth muscle content.
(§1) Aged (24 month) and adult (9 month) male and female F344 rats were administered recombinant human relaxin-2 (400 μg/kg/day) or saline for 14-days via subcutaneous osmotic pumps. At the end of the treatment period, bladders were isolated. Contractile function was assessed in bladder muscle strips using length-tension relationship and responses to agonists and electrical field stimulation. Bladder wall morphology was examined in histological sections stained for collagen and elastin.
(§2) Aged (24 month) and adult (9 month) male and female F344 rats (obtained through the aged rodent colony of the National Institute on Aging) were administered recombinant hRLX2 (400 μg/kg/day) or saline for 14-days via subcutaneous osmotic pumps. At the end of the treatment period, bladders were isolated and contractile function assessed in organ bath experiments using muscle strips to measure length-tension relationships and responses to agonists and electrical field stimulation. Bladder wall morphology was examined in 3 μm-thick histological sections stained for collagen and elastin. The expression of the L-type Ca^2+ channel α-subunit, Cav1.2, and relaxin receptor subtypes, RXFP1 and RXFP2, were determined by immunohistochemistry.

CaV1.2 [3] = assay: Immunohistochemistry of L-type Ca2+ channel subunit in irradiated mouse bladders; type: in vivo; settings: relaxin treated, listed as relaxin
Source text: (§3) FIG. 5A-5D. Relaxin treatment improves detrusor contractility and reduces bladder fibrosis in mouse bladders with chronic stage radiation cystitis. FIG. 5A. Length-tension profiles from irradiated (9-weeks post exposure) mouse bladders with and without relaxin treatment. […] FIG. 5B. […] FIG. 5C. […] Expression of the L-type Ca^2+ channel subunit, CaV1.2, was examined by immunohistochemistry. […] FIG. 5D.
(§4) A mouse model was developed to mimic chronic radiation cystitis. As a surrogate to chronic radiation cystitis in the mouse, a laparotomy was performed where the bladder was briefly withdrawn for selective high dose (10 Gy) irradiation (FIG. 4(A)). Delivered to the pelvic region such a dose could be lethal (LD50≅8 Gy). […] Moreover, following spinal cord injury, rodents can develop detrusor-sphincter-dyssynergia (DSD) which also occurs in humans. […] This is the first application of relaxin to treat bladder dysfunction due to irradiation damage or any urinary tract disease. The data also are by far the most impressive reversal/treatment for radiation cystitis.

aged rat bladder [4] = assay: Length-tension studies and agonist/EFS responses of bladder strips from aged and adult rats; type: in vivo
Protocol: Adult (9 months old) and aged (24 months old) Fisher 344/Brown Norway F1 (F-344) male rats were used in this study. Six out of twelve rats in each age group were treated with relaxin (400 μg/kg/day) or vehicle which were infused by osmotic mini-pumps (ALZET) for 14 days, after which bladders were excised and cut from outlet to dome along the midline ventral and dorsal aspects to form two strips.
One strip was placed in a recording chamber with oxygenated Krebs solution. The base was pinned to a fixed platform and the dome connected to a tension transducer mounted on a programmable stepper motor. Bladder strips were stretched longitudinally in 500 μm increments and baseline tension allowed to stabilize (passive tension). Three field stimulation (20 Hz, 3 sec train, 0.5 ms pulse width, 15V output) contractions were performed at each stretch to determine active force generation.
as §1, §2

Cav1.2 [5] = assay: Immunohistochemistry of Cav1.2 in aged rat bladders; type: in vivo; settings: aged (24 month) rat bladders, 400 μg/kg/day for 14 days
Source text: FIG. 7. Expression of L-type Ca^2+ channels is increased in aged rat bladders following relaxin treatment. Immunohistological staining of aged (>24 month old) rat bladder sections for the L-type Ca^2+ channel al C subunit, Cav1.2α. Expression of Cav1.2α was increased in relaxin-treated rat bladders compared to sham controls, similar to that observed in irradiated mouse bladders (FIG. 5C). […] This emphasizes the heterogeneity of aging related bladder changes.
as §2

RXFP1 and RXFP2 receptor = settings: Bathgate et al. 2013; cited from earlier work
[6] = system: irradiated mouse bladder detrusor; assay: Length-tension profiles and contractile responses of irradiated mouse bladders after relaxin treatment; type: in vivo; settings: relaxin treated
Source text: as §3, §4

[7] = system: C57Bl/6 mice with chronic radiation cystitis; assay: Urine spot analysis of irradiated mice; type: in vivo, mouse
Protocol: FIG. 16. Urine spot analysis from irradiated mice with and without hRLX2 therapy. Mice were placed in metabolic cages with Whatman paper on the floor for 2 hours between 11 AM and 2 PM without access to food and water. Upon completion, filter papers were collected and photographed under UV light.
Thus, our assessment is that the therapeutic dose of hRLX2 is likely between 80 and 400 μg/kg/day.

irradiated mouse bladder = assay: Histology and collagen quantification of irradiated mouse bladders; type: in vivo
Source text: as §3, §4

[8] = clinical trials in acute heart failure and scleroderma; as high as 250 μg/kg/day; cited from earlier work
[9] = system: aged rat prostate / urethra; assay: Histological sections of male rat urethras at the level of the prostate (aged rats, BPH); type: in vivo; settings: hRLX2 treated vs control, preliminary studies
Source text: FIG. 21. Histological sections of male rat urethras—at the level of the prostate—from control and hRLX2 treated aged rats.
Benign Prostatic Hyperplasia is a non-malignant enlargement of the prostate and is a condition that frequently affects the elderly male population. BPH in humans can cause constriction of the urethra, outlet obstruction, inflammation, fibrosis and the development of LUTD (Bushman, W. A., et al.: The role of prostate inflammation and fibrosis in lower urinary tract symptoms. Am J Physiol Renal Physiol, 311: F817, 2016). […] However, the therapeutic effects of hRLX2 on BPH itself can still be evaluated in aged animal models. We propose that selective injection of hRLX2 (FIG. 20) to the lateral and ventral lobes (corresponding to the transitional zone of the human prostate) or systemic administration could be performed in aged rats or mice. Following treatment, the prostates could be evaluated histologically for morphological changes such as smooth muscle or extracellular matrix content, signs of inflammation (e.g., mast cell infiltration, edema) or epithelial damage, as that observed in preliminary studies (FIG. 21).

[10] = system: irradiated mouse bladder (chronic radiation cystitis); assay: Decerebrated cystometry with simultaneous EUS electromyography in the selective bladder irradiation (chronic radiation cystitis) mouse model; type: in vivo; settings: mice 9 weeks after 10 Gy selective bladder irradiation
Protocol: FIG. 4. Cystometric and EUS electromyographic assessment of irradiated mice with and without relaxin treatment. A. Selective bladder irradiation model. B-D. Bladder and sphincter functions were assessed using decerebrated cystometry with simultaneous electromyography (EMG; green traces) at 9 weeks following bladder irradiation.
as §4

RXFP2 = RXFP2 (Homo sapiens, UniProt Q8WXD0); settings: cited from earlier work
RXFP2, sequence (Q8WXD0 whole entry, species assumed): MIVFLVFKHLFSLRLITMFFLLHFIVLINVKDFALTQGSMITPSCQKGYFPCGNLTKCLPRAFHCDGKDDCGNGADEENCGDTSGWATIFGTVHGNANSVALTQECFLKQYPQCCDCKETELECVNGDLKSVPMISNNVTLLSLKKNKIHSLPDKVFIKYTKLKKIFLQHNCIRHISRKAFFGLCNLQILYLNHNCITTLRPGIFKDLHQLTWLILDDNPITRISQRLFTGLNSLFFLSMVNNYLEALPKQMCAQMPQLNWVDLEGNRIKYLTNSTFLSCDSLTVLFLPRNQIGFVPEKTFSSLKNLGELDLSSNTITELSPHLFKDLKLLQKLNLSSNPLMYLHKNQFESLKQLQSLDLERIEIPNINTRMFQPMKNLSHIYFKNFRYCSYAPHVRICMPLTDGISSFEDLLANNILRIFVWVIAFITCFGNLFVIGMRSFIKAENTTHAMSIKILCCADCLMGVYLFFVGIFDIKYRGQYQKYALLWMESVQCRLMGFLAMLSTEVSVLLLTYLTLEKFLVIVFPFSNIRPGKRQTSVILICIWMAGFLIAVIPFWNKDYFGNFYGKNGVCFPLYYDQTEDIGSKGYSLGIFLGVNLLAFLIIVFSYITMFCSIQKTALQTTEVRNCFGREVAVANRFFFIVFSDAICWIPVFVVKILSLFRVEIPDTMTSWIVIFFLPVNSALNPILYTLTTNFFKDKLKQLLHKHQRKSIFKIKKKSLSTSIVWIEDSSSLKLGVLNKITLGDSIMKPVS

[11] = adult (9 month) male rats, relaxin vs vehicle, 400 μg/kg/day for 14 days

## human relaxin-2 [hRLX2]
[1]
  Plasma level, exogenous: 5,042 ♂ pg/ml
Aged rat bladder [2]; 9 month adult male rats, no significant difference to vehicle
  collagen:tissue ratio: 0.33±0.09
Aged rat bladder [2]; 9 month old rats, sham vs relaxin treated
  size of each bladder layer and collagen distribution: not significantly different
Aged rat bladder [2]; 24 month aged male rats, p<0.05
  collagen:tissue ratio: 0.36±0.08
Aged rat bladder [2]
  bladder collagen content / deposition: decreased by hRLX2 treatment
Aged rat bladder [2]; listed as relaxin
  bladder collagen content / deposition: decreased following relaxin treatment; also recorded: significant decrease in collagen content; also recorded: decreases in collagen content
Aged rat bladder [2]; aged rats, relaxin treated vs shams
  detrusor layer thickness and collagen infiltration: increased detrusor layer thickness and less collagen infiltration compared to shams
CaV1.2 [3]
  CaV1.2 expression in the detrusor: returned by relaxin treatment; also recorded: an increase in the expression of Cav1.2α
Aged rat bladder [4]; 24 month-old Fischer F-344 rats, 400 μg/kg/day sc ALZET pumps, 2 weeks (Example 2)
  compliance and force generation: substantial increases in both compliance and force generation
Aged rat bladder [4]; [11]
  active tension generation: increased active tension generation compared to controls
  passive tension profile: no significant difference
Aged rat bladder [4]; aged (24 month) rats, male where stated, 400 μg/kg/day sc for 14 days
  passive tension profile: return of passive tension profiles comparable to adults
Aged rat bladder [4]; aged (24 month) rats, male where stated, 400 μg/kg/day sc for 14 days, listed as Relaxin
  passive tension profile: return of passive tension profiles comparable to adults
Aged rat bladder [4]; aged (24 month) rats, male where stated, 400 μg/kg/day sc for 14 days, listed as relaxin
  passive tension profile: passive tension began increasing at a smaller degree of stretch compared to relaxin treated animals; also recorded: decreased the passive tension profile to that of adult animals
Aged rat bladder [4]; aged and adult rat bladders, relaxin vs sham
  responses to contractile agonists (ABMA and oxotremorine-M) or depolarization (KCl and EFS): no significant change
Aged rat bladder [4]; aged female rats, 400 μg/kg/day for 14 days
  tissue compliance: nor was it significantly altered
Aged rat bladder [4]; aged rats, relaxin vs vehicle/sham, 400 μg/kg/day for 14 days
  active tension generation: equivocal; also recorded: no significant changes
Cav1.2 [5]
  Cav1.2 expression in the detrusor layer: increased in aged rat bladders following hRLX2 treatment
Cav1.2 [5]; listed as Relaxin
  Cav1.2 expression in the detrusor layer: increased expression of L-type Ca^2+ channels
Cav1.2 [5]; listed as relaxin
  Cav1.2 expression in the detrusor layer: increased; also recorded: increases in smooth muscle expression of Cav1.2α
RXFP1 and RXFP2 receptor
  affinity, RXFP1 versus RXFP2: greater for the RXFP1 than the RXFP2 receptor
[6]; 9 weeks post exposure
  active tension / active force generation (length-tension profile): reversed by relaxin treatment to a profile similar to non-irradiated control mouse bladders; also recorded: increased active force generation
  passive tension (length-tension profile): reversed by relaxin treatment to a profile similar to non-irradiated control mouse bladders; also recorded: reversed by relaxin
[6]
  responses to purinergic agonist (ABMA), depolarization (KCl) or electrical field stimulation (EFS): no significant change
[6]; listed as Relaxin
  contractile response of the detrusor to oxotremorine-M (cholinergic response): increased the contractile response of the detrusor to muscarinic receptor agonist, oxotremorine-M
[6]; listed as relaxin
  contractile response of the detrusor to oxotremorine-M (cholinergic response): an increase in the cholinergic response
[7]; irradiated mice (10 Gy), 50 μg/kg/day sc osmotic pump, two weeks
  urine spot analysis: number of spots and voided volumes: small decrease in the number of spots and increase of voided volumes
[7]; irradiated mice (10 Gy), 400 μg/kg/day
  urine spot analysis: voiding pattern: voiding pattern identical to those of non-irradiated controls
[7]; irradiated mice, dose not given
  urine spot analysis: voided volumes and number of spots: increased voided volumes and decreased the number of spots, restoring normal bladder function
Irradiated mouse bladder; relaxin treated
  bladder wall histology (urothelium, lamina propria, detrusor layer): intact urothelium, normal lamina propria and increased thickness of the detrusor layer
Irradiated mouse bladder; relaxin vs sham treated
  collagen content: significant decrease in collagen content; also recorded: decreased collagen content
[8]
  safety for use in humans: validated its safety for use in humans
[9]
  prostatic urethra histology (inflammation, columnar epithelium disruption, collagen infiltration, internal urethral sphincter damage): prevented these adverse changes
[10]; relaxin 400 μg/kg/day sc for 2 weeks from week 7
  EUS electromyogram: guarding reflex and bursting: recovered with relaxin treatment; also recorded: return of a normal guarding reflex and bursting
[10]; relaxin 400 μg/kg/day sc mini-pump for 2 weeks from week 7
  cystometry: voiding function and bladder compliance: abolished overflow incontinence with a return of voiding function and improved bladder compliance

B1: insulin-like peptide-3 (protein, listed as Homo sapiens)
chain: MDPRLPAWALVLLGPALVFALGPAPTPEMREKLCGHHFVRALVRVCGGPRWSTEARRPATGGDQRESHSVSQAGLKLLSSSNPPTLTFQSVGISDVSCYSGWRDDICSMGWWPTVISRWDLACSPCPRPLTITATTVQLPPTLHATAASVAVPNKTC
RXFP2
  affinity for RXFP2: highest affinity for RXFP2
